In patent US5770382A, “Tricyclic retinoids, methods for their production and use” (Ligand Pharmaceuticals, Inc., priority 1995, dated 1998):

Key:
Assay type in all cases: cell-based
[1] = target: T1, RARα (Homo sapiens, UniProt P10276); test: Co-transfection assay, RARα agonist activity; conditions: CV-1 cells, 40 hours; read-out: RARα Pot (potency, EC50)
T1 construct: expressed in transfected cells; host or cells: CV-1 (African green monkey kidney fibroblasts)
T1 sequence (P10276 1-462): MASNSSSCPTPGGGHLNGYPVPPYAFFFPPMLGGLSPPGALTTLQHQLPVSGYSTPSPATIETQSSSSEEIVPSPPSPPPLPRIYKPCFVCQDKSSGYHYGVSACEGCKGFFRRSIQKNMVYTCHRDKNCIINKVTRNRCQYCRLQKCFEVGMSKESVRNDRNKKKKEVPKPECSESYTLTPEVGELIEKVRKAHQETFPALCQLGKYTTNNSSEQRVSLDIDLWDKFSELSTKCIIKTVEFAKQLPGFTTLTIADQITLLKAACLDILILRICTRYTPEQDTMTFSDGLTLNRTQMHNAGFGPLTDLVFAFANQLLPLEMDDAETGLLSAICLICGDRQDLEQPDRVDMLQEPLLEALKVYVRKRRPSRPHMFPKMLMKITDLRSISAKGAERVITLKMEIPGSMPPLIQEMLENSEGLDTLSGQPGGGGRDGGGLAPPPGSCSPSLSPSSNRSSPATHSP

[2] = target: T2, RARβ (Homo sapiens, UniProt P10826); test: Co-transfection assay, RARβ agonist activity; conditions: CV-1 cells, 40 hours; read-out: RARβ Pot (potency, EC50)
T2 construct: expressed in transfected cells; host or cells: CV-1 (African green monkey kidney fibroblasts)
T2 sequence (P10826 1-448 isoform P10826-2): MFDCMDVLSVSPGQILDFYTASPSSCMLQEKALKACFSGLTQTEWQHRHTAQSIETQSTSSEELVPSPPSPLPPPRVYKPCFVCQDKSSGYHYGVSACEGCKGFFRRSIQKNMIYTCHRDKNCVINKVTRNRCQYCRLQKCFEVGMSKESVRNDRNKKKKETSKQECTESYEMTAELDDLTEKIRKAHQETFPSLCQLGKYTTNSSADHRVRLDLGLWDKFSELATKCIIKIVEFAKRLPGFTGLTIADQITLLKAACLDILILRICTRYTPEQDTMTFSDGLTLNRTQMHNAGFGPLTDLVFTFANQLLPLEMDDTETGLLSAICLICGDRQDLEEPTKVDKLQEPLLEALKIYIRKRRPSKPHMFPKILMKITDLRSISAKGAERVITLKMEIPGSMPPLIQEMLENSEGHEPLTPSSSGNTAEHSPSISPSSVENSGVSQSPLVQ

[3] = target: T3, RXRγ (Mus musculus, UniProt P28705); test: Co-transfection assay, RXRγ agonist activity; conditions: CV-1 cells, 40 hours; read-out: RXRγ Pot (potency, EC50)
T3 construct: expressed in transfected cells; host or cells: CV-1 (African green monkey kidney fibroblasts)
T3 sequence (P28705 1-463): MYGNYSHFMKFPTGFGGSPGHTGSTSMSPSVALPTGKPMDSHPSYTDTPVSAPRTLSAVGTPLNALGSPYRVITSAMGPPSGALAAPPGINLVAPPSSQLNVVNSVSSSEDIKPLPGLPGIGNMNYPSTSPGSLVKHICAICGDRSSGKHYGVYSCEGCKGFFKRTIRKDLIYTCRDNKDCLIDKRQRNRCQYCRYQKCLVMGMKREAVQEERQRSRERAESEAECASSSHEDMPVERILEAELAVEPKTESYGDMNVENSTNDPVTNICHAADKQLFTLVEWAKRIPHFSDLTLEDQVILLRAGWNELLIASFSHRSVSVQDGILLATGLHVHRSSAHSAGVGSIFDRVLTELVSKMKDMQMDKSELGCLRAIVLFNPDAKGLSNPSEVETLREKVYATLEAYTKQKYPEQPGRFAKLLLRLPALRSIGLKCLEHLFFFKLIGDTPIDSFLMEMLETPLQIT

[4] = target: T4, RARγ (Homo sapiens, UniProt P13631); test: Co-transfection assay, RARγ agonist activity; conditions: CV-1 cells, 40 hours; read-out: RARγ Pot (potency, EC50)
T4 construct: expressed in transfected cells; host or cells: CV-1 (African green monkey kidney fibroblasts)
T4 sequence (P13631 1-454): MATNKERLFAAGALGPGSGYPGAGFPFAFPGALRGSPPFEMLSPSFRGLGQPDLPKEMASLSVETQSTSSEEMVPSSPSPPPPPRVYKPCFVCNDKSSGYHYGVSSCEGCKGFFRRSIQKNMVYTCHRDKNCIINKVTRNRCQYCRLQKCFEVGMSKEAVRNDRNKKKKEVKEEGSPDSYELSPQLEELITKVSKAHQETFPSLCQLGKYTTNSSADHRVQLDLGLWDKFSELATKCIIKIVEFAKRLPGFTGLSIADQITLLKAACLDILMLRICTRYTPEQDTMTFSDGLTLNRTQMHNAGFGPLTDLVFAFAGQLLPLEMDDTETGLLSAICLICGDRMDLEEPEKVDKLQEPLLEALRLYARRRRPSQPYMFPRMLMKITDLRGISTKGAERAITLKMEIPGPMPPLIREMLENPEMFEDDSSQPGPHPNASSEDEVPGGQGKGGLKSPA

EC50 [1]: > 10000 nM
EC50 [2]: 61 nM
EC50 [3]: 11 nM
EC50 [4]: 83 nM
SMILES: CC(/C=C/C=C1/CC(C)(C)Oc2cc3c(cc21)C(C)(C)CCC3(C)C)=C\C(=O)O [Compound 104b, (2E,4E)-3-Methyl-6-(2,3,6,7,8,9-hexahydro-2,2,6,6,9,9-hexamethylbenzo[b]-chromen-4-ylidene)-hexa-2,4-dienoic acid]
